Data reported in patent publication US11052087B2, “Anti-HIV compounds” (priority 2018, dated 2021).
≈ marks a conversion by molar mass, not a printed value. Structures can show the parent of a compound that is named as a salt. Where two headings read alike, the source gives them in different places.

How the values were obtained:
[1] = Kinetic Solubility Analysis (CLND); type: physicochemical; conditions: 26 °C, kinetic from dmso stock
Experimental: Kinetic Solubility Analysis (CLND) Buffer Preparation:
0.1N HCl: Hydrochloric acid, 0.1N standardized solution.
1×PBS, 7.4: Phosphate Buffered Saline solution 10×, PBS 50 mL was added to approximately 450 mL HPLC grade H2O. The volume of the solution was then adjusted to 500 mL for a total dilution factor of 1:10 and a final PBS concentration of IX.
Kinetic Solubility from DMSO Stocks:
The final DMSO concentration is 1.0% and maximum theoretical compound concentration is 100 μM (assuming stock concentration of 10 mM). The filter plate was sealed. […] The collection plate was sealed for analysis. Filtrates were injected into the nitrogen detector for quantification.
The equimolar nitrogen response of the detector was calibrated using standards which spanned the dynamic range of the instrument from […] nitrogen. The filtrates were quantified with respect to this calibration curve. The calculated solubility values were corrected for background nitrogen present in the DMSO and the media used to prepare the samples.

in vivo = conditions: beagle, dog, po
Experimental: Pharmacokinetic Profiling Dog PK
(§6) Compound 11 was formulated in a suspension formulation (1% HPMC and 0.05% Tween 20 in DI Water) and administered orally at 10 mg-eq/kg to a dosing group consisting of three non-naïve male beagle dogs. At dosing, the animals weighed between 9 to 12 kg. The animals were fasted overnight prior to dose administration and up to four hours after dosing. Serial venous blood samples (approximately 1.0 mL each) were obtained at pre-dose, 0.25, 0.50, 1, 2, 4, 6, 8, 12, and 24 hours post-dose. The blood samples were collected into Vacutainer™ tubes containing EDTA-K2 as the anti-coagulant and were immediately placed on wet ice pending centrifugation for plasma. An LC/MS/MS method was used to measure the concentration of compound 11 and compound D in plasma. […] In a second experiment, compound D was dosed orally as a suspension using the same formulation and dose level.

[2] = tested on: HIV-1 (IIIB) in MT-4 cells; assay: MT-4 HIV Assay; type: cell-based
Experimental: Compounds were tested in a high-throughput 384-well assay format for their ability to inhibit the replication of HIV-1 (IIIB) in MT-4 cells. Compounds were serially diluted (1:3) in DMSO on 384-well polypropylene plates and further diluted 200-fold into complete RPMI media (10% FBS, 1% P/S) using the Biotek Micro Flow and Agilent ECHO acoustic dispenser. Each plate contained up to 8 test compounds, with negative (No Drug Control) and 5 μM AZT positive controls. MT-4 cells were pre-infected with 10 μL of either RPMI (mock-infected) or a fresh 1:250 dilution of an HIV-1 (IIIB) concentrated virus stock. Infected and uninfected MT-4 cells were further diluted in complete RPMI media and added to each plate using a Micro Flow dispenser. After 5 days incubation in a humidified and temperature controlled incubator (37° C.), Cell Titer Glo (Promega) was added to the assay plates to quantify the amount of luciferase. EC50 values were defined as the compound concentration that causes a 50% decrease in luminescence signal, and were calculated using a sigmoidal dose-response model to generate curve fits.

[3] = Liver microsomal stability (rat); type: in vitro ADME; conditions: rat liver microsomes 0.5 mg/mL, 1 μM compound, NADPH-regenerating system, 37° C.
Experimental: (§1) Liver Microsomal Stability Protocol
(§2) Test compounds and one control compound (verapamil) were tested in 3 different species in duplicate sets.
(§3) Test compound concentration: 1 μM; Protein concentration: 0.5 mg/mL (for rat and human liver microsomes); Cofactor: NADPH-Regenerating system (NRS) solution. Time-points: 2, 12, 25, 45, and 65 minutes.
(§4) Reaction composition (in each incubation well) contains:
(§5) At an incubation temperature of 37° C., the reaction was started with addition of NADPH Regeneration System, at each time point, 25 μL of the reaction mixture was removed and added to a plate with 225 μL quenching solution (50% MeOH, 25% ACN, 25% H2O, and 200 nM labetalol as internal standard). After plates were vortexed, they were centrifuged for 30 minutes to remove proteins. About 100 μL supernatant was removed to a new plate and diluted with 150 μL water. About 20 μL of the mixture was injected into an LC/MS/MS system to monitor the compound's response. In vitro measured t1/2 was used to calculate Clint values.

[4] = Liver microsomal stability (human); type: in vitro ADME; conditions: human liver microsomes 0.5 mg/mL, 1 μM compound, NADPH-regenerating system, 37° C.
Experimental: as §1, §2, §3, §4, §5

[5] = male, beagle, dog, in vivo
Experimental: Pharmacokinetic Profiling Dog PK
as §6

Rat PK = type: in vivo; conditions: compound 14 oral solution, 75 mg-eq/kg dose group, male SD rats, LC/MS/MS
Experimental: Compound 14 was formulated in a solution formulation (84% 10 mM HCl; 15% 2-Hydroxypropyl-β-Cyclodextrin; 1% Dimethyl sulfoxide pH 2.0) and administered orally at 2.5 and 75 mg-eq/kg to a dosing groups consisting of three male SD rats. At dosing, the animals weighed between 270 and 350 g. […] Trace amounts of compound 14 were detected in plasma in the 75 mg-eq/kg dose group.

[6] = 0.1N HCl, pH 1, simulated gastric fluid, read-out: Solubility, HCl, pH 1.0, RT
[7] = PBS, pH 7.4, aqueous buffer, read-out: Solubility, PBS, pH 7.4, RT
[8] = Human immunodeficiency virus 1, MT4, 120 h, HIV-1 (IIIB) replication in MT-4 cells, 5 days incubation, Cell Titer Glo, read-out: EC50

Compound: COC(=O)N[C@H](C(=O)N[C@@H](Cc1ccc(C#Cc2cnc(N3CC4CCC(C3)N4C3COC3)nc2)cc1)[C@@H](O)CN(Cc1c(F)cc(-c2ccn(C(F)F)n2)cc1F)NC(=O)[C@@H](NC(=O)OC)C(C)(C)C(F)(F)F)C(C)(C)C(F)(F)F [Compound D, methyl ((5S,8S,9S,14S)-11-(4-(1-(difluoromethyl)-1H-pyrazol-3-yl)-2,6-difluorobenzyl)-16,16,16-trifluoro-9-hydroxy-15,15-dimethyl-8-(4-((2-(8-(oxetan-3-yl)-3,8-diazabicyclo[3.2.1]octan-3-yl)pyrimidin-5-yl)ethynyl)benzyl)-3,6,13-trioxo-5-(1,1,1-trifluoro-2-methylpropan-2-yl)-2-oxa-4,7,11,12-tetraazahexadecan-14-yl)carbamate, reference compound]
- solubility at 24 h [1, 6]: 19.5 µM (≈ 22.5 µg/mL)
- solubility at 24 h [1, 7]: < 1 µM
- bioavailability (in vivo): 2.6 ± 1.1%

Compound: COC(=O)N[C@H](C(=O)N[C@@H](Cc1ccc(C#Cc2cnc(N3CC4CCC(C3)N4C3COC3)nc2)cc1)[C@H](CN(Cc1c(F)cc(-c2ccn(C(F)F)n2)cc1F)NC(=O)[C@@H](NC(=O)OC)C(C)(C)C(F)(F)F)OC=O)C(C)(C)C(F)(F)F [Example 1, (5S,10S,11S,14S)-8-(4-(1-(difluoromethyl)-1H-pyrazol-3-yl)-2,6-difluorobenzyl)-11-(4-((2-(8-(oxetan-3-yl)-3,8-diazabicyclo[3.2.1]octan-3-yl)pyrimidin-5-yl)ethynyl)benzyl)-3,6,13,16-tetraoxo-5,14-bis(1,1,1-trifluoro-2-methylpropan-2-yl)-2,17-dioxa-4,7,8,12,15-pentaazaoctadecan-10-yl formate]
- EC50 [2, 8]: 4.62 nM
- Rat. Pred. Cl. (L/H/kg) [3]: <0.4 L/H/kg
- Human Pred Cl. (L/H/kg) [4]: 0.37 L/H/kg
- solubility at 24 h [1, 6]: 20 µM
- solubility at 24 h [1, 7]: < 1 µM

Compound: COC(=O)N[C@H](C(=O)N[C@@H](Cc1ccc(C#Cc2cnc(N3CC4CCC(C3)N4C3COC3)nc2)cc1)[C@H](CN(Cc1c(F)cc(-c2ccn(C(F)F)n2)cc1F)NC(=O)[C@@H](NC(=O)OC)C(C)(C)C(F)(F)F)OC(=O)CCCN1CCOCC1)C(C)(C)C(F)(F)F [Example 2, (5S,10S,11S,14S)-8-(4-(1-(difluoromethyl)-1H-pyrazol-3-yl)-2,6-difluorobenzyl)-11-(4-((2-(8-(oxetan-3-yl)-3,8-diazabicyclo[3.2.1]octan-3-yl)pyrimidin-5-yl)ethynyl)benzyl)-3,6,13,16-tetraoxo-5,14-bis(1,1,1-trifluoro-2-methylpropan-2-yl)-2,17-dioxa-4,7,8,12,15-pentaazaoctadecan-10-yl 4-morpholinobutanoate]
- EC50 [2, 8]: 56.6 nM
- Rat. Pred. Cl. (L/H/kg) [3]: 0.84 L/H/kg
- Human Pred Cl. (L/H/kg) [4]: 0.53 L/H/kg
- solubility at 24 h [1, 6]: 81 µM (≈ 106 µg/mL)
- solubility at 24 h [1, 7]: < 1 µM

Compound: COC(=O)N[C@H](C(=O)N[C@@H](Cc1ccc(C#Cc2cnc(N3CC4CCC(C3)N4C3COC3)nc2)cc1)[C@H](CN(Cc1c(F)cc(-c2ccn(C(F)F)n2)cc1F)NC(=O)[C@@H](NC(=O)OC)C(C)(C)C(F)(F)F)OC(=O)c1cccnc1)C(C)(C)C(F)(F)F [Example 5, (5S,10S,11S,14S)-8-(4-(1-(difluoromethyl)-1H-pyrazol-3-yl)-2,6-difluorobenzyl)-11-(4-((2-(8-(oxetan-3-yl)-3,8-diazabicyclo[3.2.1]octan-3-yl)pyrimidin-5-yl)ethynyl)benzyl)-3,6,13,16-tetraoxo-5,14-bis(1,1,1-trifluoro-2-methylpropan-2-yl)-2,17-dioxa-4,7,8,12,15-pentaazaoctadecan-10-yl nicotinate]
- EC50 [2, 8]: 1140 nM
- Rat. Pred. Cl. (L/H/kg) [3]: 0.58 L/H/kg
- Human Pred Cl. (L/H/kg) [4]: 0.28 L/H/kg
- solubility at 24 h [1, 6]: 89.2 µM (≈ 112 µg/mL)
- solubility at 24 h [1, 7]: < 1 µM

Compound: COC(=O)N[C@H](C(=O)N[C@@H](Cc1ccc(C#Cc2cnc(N3CC4CCC(C3)N4C3COC3)nc2)cc1)[C@H](CN(Cc1c(F)cc(-c2ccn(C(F)F)n2)cc1F)NC(=O)[C@@H](NC(=O)OC)C(C)(C)C(F)(F)F)OC(=O)c1ccccn1)C(C)(C)C(F)(F)F [Example 6, (5S,10S,11S,14S)-8-(4-(1-(difluoromethyl)-1H-pyrazol-3-yl)-2,6-difluorobenzyl)-11-(4-((2-(8-(oxetan-3-yl)-3,8-diazabicyclo[3.2.1]octan-3-yl)pyrimidin-5-yl)ethynyl)benzyl)-3,6,13,16-tetraoxo-5,14-bis(1,1,1-trifluoro-2-methylpropan-2-yl)-2,17-dioxa-4,7,8,12,15-pentaazaoctadecan-10-yl picolinate]
- EC50 [2, 8]: 278 nM
- Rat. Pred. Cl. (L/H/kg) [3]: <0.4 L/H/kg
- Human Pred Cl. (L/H/kg) [4]: 0.29 L/H/kg
- solubility at 24 h [1, 6]: 38.5 µM (≈ 48.6 µg/mL)
- solubility at 24 h [1, 7]: < 1 µM

Compound: COC(=O)N[C@H](C(=O)N[C@@H](Cc1ccc(C#Cc2cnc(N3CC4CCC(C3)N4C3COC3)nc2)cc1)[C@H](CN(Cc1c(F)cc(-c2ccn(C(F)F)n2)cc1F)NC(=O)[C@@H](NC(=O)OC)C(C)(C)C(F)(F)F)OC(=O)OCOP(=O)(O)O)C(C)(C)C(F)(F)F [Example 11, methyl ((5S,10S,11S,14S)-8-(4-(1-(difluoromethyl)-1H-pyrazol-3-yl)-2,6-difluorobenzyl)-16,16,16-trifluoro-15,15-dimethyl-11-(4-((2-(8-(oxetan-3-yl)-3,8-diazabicyclo[3.2.1]octan-3-yl)pyrimidin-5-yl)ethynyl)benzyl)-3,6,13-trioxo-10-((((phosphonooxy)methoxy)carbonyl)oxy)-5-(1,1,1-trifluoro-2-methylpropan-2-yl)-2-oxa-4,7,8,12-tetraazahexadecan-14-yl)carbamate]
- bioavailability of compound D [5]: 5.5±2.6%

Compound: COC(=O)N[C@H](C(=O)N[C@@H](Cc1ccc(C#Cc2cnc(N3CC4CCC(C3)N4C3COC3)nc2)cc1)[C@H](CN(Cc1c(F)cc(-c2ccn(C(F)F)n2)cc1F)NC(=O)[C@@H](NC(=O)OC)C(C)(C)C(F)(F)F)OC(=O)CN(C)C(=O)[C@@H](N)Cc1ccccc1)C(C)(C)C(F)(F)F [Example 14, (2S,3S)-1-(1-(4-(1-(difluoromethyl)-1H-pyrazol-3-yl)-2,6-difluorobenzyl)-2-((S)-4,4,4-trifluoro-2-((methoxycarbonyl)amino)-3,3-dimethylbutanoyl)hydrazinyl)-4-(4-((2-(8-(oxetan-3-yl)-3,8-diazabicyclo[3.2.1]octan-3-yl)pyrimidin-5-yl)ethynyl)phenyl)-3-((S)-4,4,4-trifluoro-2-((methoxycarbonyl)amino)-3,3-dimethylbutanamido)butan-2-yl N-(L-phenylalanyl)-N-methylglycinate]
- EC50 ([2]; Human immunodeficiency virus 1, IIIB, MT4, 120 h): 6.54 nM
- concentration of compound 14 in plasma (Rat PK): Trace amounts
